According to ChEMBL document CHEMBL1144945, “Development of progesterone receptor antagonists from 1,2-dihydrochromeno[3,4-f]quinoline agonist pharmacophore” (Bioorg Med Chem Lett, 2003):
Activity calls are given as the source filed them. The calls are words filed in the database; no cut-off is given here.

How the values were obtained:
[1] = target: Estrogen receptor (Homo sapiens) (UniProt Q92731+P03372); assay: Antagonist efficacy for estrogen (hER) receptor; Not active; assay type: functional
Glucocorticoid receptor [2] = target: T1, Glucocorticoid receptor (Homo sapiens, UniProt P04150); assay: Inhibition of antagonist activity towards glucocorticoid (hGR) receptor; assay type: functional
T1 sequence (P04150 whole entry): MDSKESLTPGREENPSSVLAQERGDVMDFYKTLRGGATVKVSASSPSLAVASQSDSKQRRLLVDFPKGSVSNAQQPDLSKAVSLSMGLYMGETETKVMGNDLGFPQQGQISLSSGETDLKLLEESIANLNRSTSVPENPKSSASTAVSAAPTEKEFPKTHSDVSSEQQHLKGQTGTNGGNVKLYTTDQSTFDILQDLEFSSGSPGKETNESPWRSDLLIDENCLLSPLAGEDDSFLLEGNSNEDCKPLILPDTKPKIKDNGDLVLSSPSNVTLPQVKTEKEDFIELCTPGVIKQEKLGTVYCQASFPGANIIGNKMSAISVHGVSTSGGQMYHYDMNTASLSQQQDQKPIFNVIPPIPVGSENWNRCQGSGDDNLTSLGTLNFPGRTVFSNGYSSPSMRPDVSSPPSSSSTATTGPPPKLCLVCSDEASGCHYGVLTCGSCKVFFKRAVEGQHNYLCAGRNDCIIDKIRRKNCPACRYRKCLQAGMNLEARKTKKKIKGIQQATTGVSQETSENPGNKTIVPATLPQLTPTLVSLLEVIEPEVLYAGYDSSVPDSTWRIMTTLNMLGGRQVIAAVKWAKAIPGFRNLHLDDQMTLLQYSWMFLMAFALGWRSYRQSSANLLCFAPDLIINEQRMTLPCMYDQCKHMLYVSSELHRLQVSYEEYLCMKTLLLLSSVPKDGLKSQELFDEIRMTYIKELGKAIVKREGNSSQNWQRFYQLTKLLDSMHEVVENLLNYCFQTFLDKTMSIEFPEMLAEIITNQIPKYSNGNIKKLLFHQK

Androgen receptor [3] = target: T2, Androgen receptor (Homo sapiens, UniProt P10275); assay: Inhibition of antagonist activity towards human Androgen receptor; assay type: functional
T2 sequence (P10275 whole entry): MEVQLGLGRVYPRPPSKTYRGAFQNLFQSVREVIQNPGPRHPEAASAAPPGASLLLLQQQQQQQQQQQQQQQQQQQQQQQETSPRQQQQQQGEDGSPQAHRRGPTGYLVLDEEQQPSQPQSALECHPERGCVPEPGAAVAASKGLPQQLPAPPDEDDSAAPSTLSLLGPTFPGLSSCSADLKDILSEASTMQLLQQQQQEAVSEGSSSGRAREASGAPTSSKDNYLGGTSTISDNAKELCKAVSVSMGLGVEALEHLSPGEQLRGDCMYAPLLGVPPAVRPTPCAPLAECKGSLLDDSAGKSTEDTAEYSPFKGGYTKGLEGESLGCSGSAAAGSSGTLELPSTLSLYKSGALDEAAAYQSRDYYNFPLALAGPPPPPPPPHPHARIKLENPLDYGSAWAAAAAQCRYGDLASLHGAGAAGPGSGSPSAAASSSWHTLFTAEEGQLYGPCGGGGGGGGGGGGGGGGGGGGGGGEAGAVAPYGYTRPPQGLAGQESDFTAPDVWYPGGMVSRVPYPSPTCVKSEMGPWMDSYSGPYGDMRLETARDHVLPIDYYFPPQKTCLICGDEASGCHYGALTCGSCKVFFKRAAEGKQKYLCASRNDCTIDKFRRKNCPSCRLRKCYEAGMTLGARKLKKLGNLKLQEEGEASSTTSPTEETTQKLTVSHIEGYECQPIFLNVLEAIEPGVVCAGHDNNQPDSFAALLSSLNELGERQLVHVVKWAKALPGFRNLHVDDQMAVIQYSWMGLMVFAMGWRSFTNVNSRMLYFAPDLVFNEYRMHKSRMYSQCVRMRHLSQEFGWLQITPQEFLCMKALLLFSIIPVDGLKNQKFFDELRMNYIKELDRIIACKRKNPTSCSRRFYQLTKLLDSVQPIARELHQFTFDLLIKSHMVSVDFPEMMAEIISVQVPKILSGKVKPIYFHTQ

[4] = target: T3, Progesterone receptor (Homo sapiens) (UniProt P06401); assay: Antagonist efficacy for human progesterone in T47D human breast cancer cell; assay type: functional, cell-based
T3 sequence (whole entry): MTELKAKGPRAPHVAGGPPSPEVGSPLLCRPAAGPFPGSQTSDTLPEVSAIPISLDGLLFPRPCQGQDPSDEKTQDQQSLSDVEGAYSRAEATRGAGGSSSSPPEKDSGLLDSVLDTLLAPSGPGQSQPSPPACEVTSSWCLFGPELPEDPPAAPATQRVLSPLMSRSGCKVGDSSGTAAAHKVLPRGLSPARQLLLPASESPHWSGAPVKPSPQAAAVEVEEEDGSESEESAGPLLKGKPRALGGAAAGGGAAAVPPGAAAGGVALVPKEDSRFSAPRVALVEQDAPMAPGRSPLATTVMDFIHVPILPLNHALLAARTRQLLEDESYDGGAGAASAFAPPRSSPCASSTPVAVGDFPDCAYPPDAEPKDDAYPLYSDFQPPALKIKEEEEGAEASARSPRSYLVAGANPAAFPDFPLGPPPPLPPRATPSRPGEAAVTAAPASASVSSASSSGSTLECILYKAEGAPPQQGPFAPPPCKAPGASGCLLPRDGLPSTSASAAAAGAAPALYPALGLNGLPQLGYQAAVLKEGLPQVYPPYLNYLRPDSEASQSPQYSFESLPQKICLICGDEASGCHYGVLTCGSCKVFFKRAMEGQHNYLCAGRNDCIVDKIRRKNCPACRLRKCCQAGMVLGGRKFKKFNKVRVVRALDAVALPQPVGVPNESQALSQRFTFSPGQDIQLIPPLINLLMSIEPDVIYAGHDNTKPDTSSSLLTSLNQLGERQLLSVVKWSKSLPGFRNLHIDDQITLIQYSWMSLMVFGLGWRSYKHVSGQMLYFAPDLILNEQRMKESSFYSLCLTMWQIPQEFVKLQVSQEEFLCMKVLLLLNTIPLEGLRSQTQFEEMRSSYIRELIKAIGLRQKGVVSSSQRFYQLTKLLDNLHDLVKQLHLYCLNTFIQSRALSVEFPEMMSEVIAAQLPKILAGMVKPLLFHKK

Progesterone receptor [5] = target: T4, Progesterone receptor (Homo sapiens, UniProt P06401); assay: Effective concentration for antagonistic activity towards human progesterone in CV-1 cells; assay type: functional, cell-based
T4 sequence (P06401 whole entry): T3 sequence (whole entry)

[6] = target: T3, Progesterone receptor (Homo sapiens); assay: Agonist efficacy for human progesterone in T47D human breast cancer cell; assay type: functional, cell-based
[7] = target: T3, Progesterone receptor (Homo sapiens); assay: Antagonist efficacy for human progesterone in CV-1 cells; assay type: functional, cell-based
[8] = target: T5, Androgen receptor (Homo sapiens) (UniProt P10275); assay: Antagonist efficacy for human sndrogen receptor; assay type: functional
T5 sequence (whole entry): T2 sequence (P10275 whole entry)

Progesterone receptor [9] = target: T4, Progesterone receptor; assay: Inhibition of human progesterone in T47D human breast cancer cell; assay type: cell-based
[10] = target: T6, Glucocorticoid receptor (Homo sapiens) (UniProt P04150); assay: Antagonist efficacy for glucocorticoid (hGR) receptor; assay type: functional
T6 sequence (whole entry): T1 sequence (P04150 whole entry)

[11] = target: T6, Glucocorticoid receptor (Homo sapiens); assay: Antagonist efficacy for glucocorticoid receptor; not active; assay type: functional
Glucocorticoid receptor [12] = target: T1, Glucocorticoid receptor; assay: Inhibition of antagonist activity towards glucocorticoid receptor; not active; assay type: functional
Androgen receptor [13] = target: T2, Androgen receptor
Description: Inhibition of antagonist activity towards Androgen receptor

[14] = target: T6, Glucocorticoid receptor (Homo sapiens); assay: Antagonist efficiency for glucocorticoid (hGR) receptor; assay type: functional

Row | SMILES | Efficacy [1] | IC50 (Glucocorticoid receptor [2]) [nM] | IC50 (Androgen receptor [3]) [nM] | EC50 (Progesterone receptor [5]) [nM] | Efficacy [7] [%] | Efficacy [8] [%] | IC50 (Androgen receptor [13]) [nM] | other results
1 | CC1=CC(C)(C)Nc2ccc3c(c21)COc1c(F)cc(F)cc1-3 | inactive | 3030 | 644 | 25.4 | 83 | 87 |  | Efficacy [4]: 52%; Efficacy [6]: 42%; IC50 (Progesterone receptor [9]): 86 nM; Efficacy [10]: 57%
2 | CC1CC(C)(C)Nc2ccc3c(c21)COc1c(F)cc(F)cc1-3 (stereo unspecified) |  |  |  |  |  |  |  | Efficacy [11]: inactive; IC50 (Glucocorticoid receptor [12]): Not Active
3 | CC1CC(C)(C)Nc2ccc3c(c21)COc1ccc([N+](=O)[O-])cc1-3 (stereo unspecified) |  |  |  |  |  |  | 63 | 
4 | CC1=CC(C)(C)Nc2ccc3c(c21)COc1c(F)cc(Br)cc1-3 |  |  |  |  |  |  | 90 | 
5 | CC1=CC(C)(C)Nc2ccc3c(c21)COc1c(F)cc(Cl)cc1-3 | inactive | 753 | 428 | 13.5 | 74 | 79 |  | Efficacy [14]: 95%
